In patent US20260297085A1, “1 H-PYRROLO[2,3-B]PYRIDIN-4-YL]-2-OXOPYRROLIDINE-3-CARBONITRILE DERIVATIVES AS TYROSINE KINASE 2 (TYK2) INHIBITORS FOR THE TREATMENT OF INFLAMMATORY DISEASES” (BIOGEN MA INC., priority 2023, published 2026):
Counter-ions that a name gives are not always drawn.

Key:
[1] = biological target: T1, human JAK3 kinase domain (JH1) (Homo sapiens, UniProt P52333); experiment: JH1 biochemical assay for JAK3 (ADP-Glo kinase assay, recombinant JH1 catalytic domain, JAK3-974 peptide, 4 μM ATP)
T1 construct: recombinantly generated catalytic kinase (also known as JH1) domain of human JAK1, JAK2, JAK3 and TYK2
Description: (§1) Compounds of the disclosure were assessed for their ability to inhibit TYK2, JAK1, JAK2, and JAK3 activity. The inhibitory properties of the compounds of the disclosure described herein can be evidenced by testing in any one of the following protocols.
(§2) The kinase activity of recombinantly generated catalytic kinase (also known as JH1) domain of human JAK1, JAK2, JAK3 and TYK2 were evaluated in a plate-based assay using the ADP-Glo™ Kinase Assay platform. Specifically, 4 nM of recombinant JAK1 kinase domain is used to phosphorylate 50 μM of a JAK3-342 (sequence ALVDGYFRLTT) peptide in the presence of 35 μM ATP. Catalytic activities of recombinant JAK2, JAK3 and TYK2 kinase domain (0.2, 0.3 and 2 nM, respectively) are evaluated by the phosphorylation status of the JAK3-974 (50 μM; sequence LPLDKDYYVVR) peptide with the addition of ATP (15, 4 and 10 μM, respectively). The reactions proceed for 100 minutes and the catalytic activity is quantified by first depleting the unused ATP, converting the hydrolyzed ADP into ATP to generate luminescence in a luciferase reaction; which is the basis of the ADP-Glo platform. Compounds are tested at either 10 μM or 1 μM top concentration, 11 points of 3-fold dilution. The data is normalized and the percent activity versus log concentration of compound is fitted with a 4-parameter logistic model to generate a curve and an IC50 value.

[2] = biological target: T2, human TYK2 kinase domain (JH1) (Homo sapiens, UniProt P29597); experiment: JH1 biochemical assay for TYK2 (ADP-Glo kinase assay, recombinant JH1 catalytic domain, JAK3-974 peptide, 10 μM ATP)
T2 construct: recombinantly generated catalytic kinase (also known as JH1) domain of human JAK1, JAK2, JAK3 and TYK2
T2 sequence (P29597 897-1176 limits assumed): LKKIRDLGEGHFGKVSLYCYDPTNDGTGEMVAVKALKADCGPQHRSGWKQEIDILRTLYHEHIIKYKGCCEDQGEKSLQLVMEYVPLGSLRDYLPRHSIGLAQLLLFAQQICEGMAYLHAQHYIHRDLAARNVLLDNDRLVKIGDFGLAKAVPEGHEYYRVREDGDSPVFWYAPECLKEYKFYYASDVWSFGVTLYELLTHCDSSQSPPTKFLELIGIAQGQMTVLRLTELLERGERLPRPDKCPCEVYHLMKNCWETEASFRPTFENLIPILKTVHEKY
Description: as §1, §2

[3] = biological target: T3, human JAK2 kinase domain (JH1) (Homo sapiens, UniProt O60674); experiment: JH1 biochemical assay for JAK2 (ADP-Glo kinase assay, recombinant JH1 catalytic domain, JAK3-974 peptide, 15 μM ATP)
T3 construct: recombinantly generated catalytic kinase (also known as JH1) domain of human JAK1, JAK2, JAK3 and TYK2
Description: as §1, §2

[4] = biological target: T4, human JAK1 kinase domain (JH1) (Homo sapiens, UniProt P23458); experiment: JH1 biochemical assay for JAK1 (ADP-Glo kinase assay, recombinant JH1 catalytic domain, JAK3-342 peptide, 35 μM ATP)
T4 construct: recombinantly generated catalytic kinase (also known as JH1) domain of human JAK1, JAK2, JAK3 and TYK2
Description: as §1, §2

T1 sequence (P52333 822-1111 limits assumed): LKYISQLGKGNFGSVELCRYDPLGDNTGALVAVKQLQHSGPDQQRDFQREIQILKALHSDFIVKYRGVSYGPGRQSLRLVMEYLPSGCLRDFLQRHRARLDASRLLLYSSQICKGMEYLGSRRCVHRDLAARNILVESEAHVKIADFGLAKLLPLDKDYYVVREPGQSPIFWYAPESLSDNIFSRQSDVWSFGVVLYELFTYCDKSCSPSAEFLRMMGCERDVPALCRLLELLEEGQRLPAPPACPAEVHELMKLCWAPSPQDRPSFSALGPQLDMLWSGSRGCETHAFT
T3 sequence (O60674 849-1124 limits assumed): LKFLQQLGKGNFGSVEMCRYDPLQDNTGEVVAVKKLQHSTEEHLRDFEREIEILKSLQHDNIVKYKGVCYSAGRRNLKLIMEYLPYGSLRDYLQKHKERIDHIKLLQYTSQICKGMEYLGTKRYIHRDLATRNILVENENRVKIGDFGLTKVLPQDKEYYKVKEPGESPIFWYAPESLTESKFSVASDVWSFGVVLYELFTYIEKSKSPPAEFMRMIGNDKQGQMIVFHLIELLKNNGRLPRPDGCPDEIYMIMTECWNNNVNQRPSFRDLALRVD
T4 sequence (P23458 875-1153 limits assumed): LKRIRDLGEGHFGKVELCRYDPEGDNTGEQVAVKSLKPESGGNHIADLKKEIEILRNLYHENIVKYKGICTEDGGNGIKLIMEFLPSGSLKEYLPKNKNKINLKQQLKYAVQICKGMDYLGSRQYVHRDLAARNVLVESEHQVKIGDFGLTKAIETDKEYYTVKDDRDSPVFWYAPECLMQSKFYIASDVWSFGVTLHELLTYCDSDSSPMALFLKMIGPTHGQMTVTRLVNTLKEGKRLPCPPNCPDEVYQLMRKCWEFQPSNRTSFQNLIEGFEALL

IC50 ([1]; JAK3 JH1, ADP-Glo) | IC50 ([2]; TYK2 JH1, ADP-Glo) | IC50 ([3]; JAK2 JH1, ADP-Glo) | IC50 ([4]; JAK1 JH1, ADP-Glo) | IC50 ([1]; JH1 kinase domain, ADP-Glo) | IC50 ([2]; JH1 kinase domain, ADP-Glo) | IC50 ([3]; JH1 kinase domain, ADP-Glo) | IC50 ([4]; JH1 kinase domain, ADP-Glo) | SMILES
1 to 5 µM | 20 to 50 nM | 1 to 5 µM | 100 to 1000 nM |  |  |  |  | C[C@@H]1CN(c2nc(-c3cncc(Cl)c3)cn3nccc23)C(=O)[C@]1(C#N)C1CC1 [Example 248, (3R,4S)-1-(6-(5-chloropyridin-3-yl)pyrazolo[1,5-a]pyrazin-4-yl)-3-cyclopropyl-4-methyl-2-oxopyrrolidine-3-carbonitrile trifluoroacetate]
 |  |  |  | > 10 µM | > 100 nM | > 10 µM | > 10000 nM | CC[C@H]1C[C@](C#N)(C2CC2)C(=O)N1c1ccnn2cc(-c3cnn(C)c3)cc12 [Example 32, (3R,5S)-3-cyclopropyl-5-ethyl-1-(6-(1-methyl-1H-pyrazol-4-yl)pyrrolo[1,2-b]pyridazin-4-yl)-2-oxopyrrolidine-3-carbonitrile]
 |  |  |  | 0.1 to 1 µM | 20 to 50 nM | 0.1 to 1 µM | 1000 to 5000 nM | Cc1ccc(-c2cc3c(N4C[C@@H](C)[C@@](C#N)(C5CC5)C4=O)ccnn3c2)nn1 [Example 137, (3R,4S)-3-cyclopropyl-4-methyl-1-(6-(6-methylpyridazin-3-yl)pyrrolo[1,2-b]pyridazin-4-yl)-2-oxopyrrolidine-3-carbonitrile trifluoroacetate]
0.1 to 1 µM | 20 to 50 nM | > 10 µM | < 100 nM |  |  |  |  | C[C@@H]1CN(c2nc(-c3cccc(F)n3)cn3nccc23)C(=O)[C@]1(C#N)C1CC1 [Example 255, (3R,4S)-3-cyclopropyl-1-(6-(6-fluoropyridin-2-yl)pyrazolo[1,5-a]pyrazin-4-yl)-4-methyl-2-oxopyrrolidine-3-carbonitrile trifluoroacetate]
1 to 5 µM | 20 to 50 nM | 1 to 5 µM | 100 to 1000 nM |  |  |  |  | COc1ncccc1-c1cn2nccc2c(N2C[C@@H](C)[C@@](C#N)(C3CC3)C2=O)n1 [Example 250, (3R,4S)-3-cyclopropyl-1-(6-(2-methoxypyridin-3-yl)pyrazolo[1,5-a]pyrazin-4-yl)-4-methyl-2-oxopyrrolidine-3-carbonitrile]
 |  |  |  | > 10 µM | > 100 nM | > 10 µM | > 10000 nM | C[C@@H]1CN(c2ccnn3c(F)c(-c4cnn(C)c4)nc23)C(=O)[C@]1(C#N)C1CC1 [Example 183, (3R,4S)-3-cyclopropyl-1-(3-fluoro-2-(1-methyl-1H-pyrazol-4-yl)imidazo[1,2-b]pyridazin-8-yl)-4-methyl-2-oxopyrrolidine-3-carbonitrile]
 |  |  |  | 1 to 5 µM | 50 to 100 nM | 5 to 10 µM | 1000 to 5000 nM | Cc1ccc2nc(-c3cc4c(N5C[C@@H](C)[C@@](C#N)(C6CC6)C5=O)ccnn4c3)nn2c1 [Example 109, (3R,4S)-3-cyclopropyl-4-methyl-1-(6-(6-methyl-[1,2,4]triazolo[1,5-a]pyridin-2-yl)pyrrolo[1,2-b]pyridazin-4-yl)-2-oxopyrrolidine-3-carbonitrile trifluoroacetate]
 |  |  |  | 5 to 10 µM | > 100 nM | 5 to 10 µM | 1000 to 5000 nM | COc1cccnc1-c1cc2c(N3C[C@@H](C)[C@@](C#N)(C4CC4)C3=O)ccnn2c1 [Example 146, (3R,4S)-3-cyclopropyl-1-(6-(3-methoxypyridin-2-yl)pyrrolo[1,2-b]pyridazin-4-yl)-4-methyl-2-oxopyrrolidine-3-carbonitrile trifluoroacetate]
 |  |  |  | 5 to 10 µM | 50 to 100 nM | > 10 µM | 1000 to 5000 nM | Cc1ccc(O)c(-c2cc3c(N4C[C@@H](C)[C@@](C#N)(C5CC5)C4=O)ccnn3c2)n1 [Example 140, (3R,4S)-3-cyclopropyl-1-(6-(3-hydroxy-6-methylpyridin-2-yl)pyrrolo[1,2-b]pyridazin-4-yl)-4-methyl-2-oxopyrrolidine-3-carbonitrile trifluoroacetate]
5 to 10 µM | 20 to 50 nM | > 10 µM | 1000 to 5000 nM |  |  |  |  | COc1cc(-c2cn3nccc3c(N3C[C@@H](C)[C@@](C#N)(C4CC4)C3=O)n2)c(OC)nn1 [Example 253, (3R,4S)-3-cyclopropyl-1-(6-(3,6-dimethoxypyridazin-4-yl)pyrazolo[1,5-a]pyrazin-4-yl)-4-methyl-2-oxopyrrolidine-3-carbonitrile trifluoroacetate]
 |  |  |  | 1 to 5 µM | 50 to 100 nM | 1 to 5 µM | 1000 to 5000 nM | C[C@@H]1CN(c2ccnn3cc(-c4cnccn4)cc23)C(=O)[C@]1(C#N)C1CC1 [Example 151, (3R,4S)-3-cyclopropyl-4-methyl-2-oxo-1-(6-(pyrazin-2-yl)pyrrolo[1,2-b]pyridazin-4-yl)pyrrolidine-3-carbonitrile trifluoroacetate]
 |  |  |  | 1 to 5 µM | > 100 nM | 1 to 5 µM | 1000 to 5000 nM | Cn1cc(-c2cc3c(N4CC[C@@](C(F)F)(C5CC5)C4=O)ccnn3c2)cn1 [Example 15, (R)-3-cyclopropyl-3-(difluoromethyl)-1-(6-(1-methyl-1H-pyrazol-4-yl)pyrrolo[1,2-b]pyridazin-4-yl)pyrrolidin-2-one]
 |  |  |  | 1 to 5 µM | 20 to 50 nM | 5 to 10 µM | 1000 to 5000 nM | C[C@@H]1CN(c2ccnn3cc(-c4ncccc4O)cc23)C(=O)[C@]1(C#N)C1CC1 [Example 149, (3R,4S)-3-cyclopropyl-1-(6-(3-hydroxypyridin-2-yl)pyrrolo[1,2-b]pyridazin-4-yl)-4-methyl-2-oxopyrrolidine-3-carbonitrile trifluoroacetate]
> 10 µM | > 100 nM | > 10 µM | > 10000 nM |  |  |  |  | COc1cc(-c2cn3nccc3c(N3C[C@@H](C)[C@@](C#N)(C4CC4)C3=O)n2)ccn1 [Example 231, (3R,4S)-3-cyclopropyl-1-(6-(2-methoxy-pyridin-4-yl)pyrazolo[1,5-a]pyrazin-4-yl)-4-methyl-2-oxopyrrolidine-3-carbonitrile trifluoroacetate]
 |  |  |  | 1 to 5 µM | 50 to 100 nM | > 10 µM | 1000 to 5000 nM | C[C@@H]1CN(c2ccnn3cc(-c4nc5ccccn5n4)cc23)C(=O)[C@]1(C#N)C1CC1 [Example 108, (3R,4S)-1-(6-([1,2,4]triazolo[1,5-a]pyridin-2-yl)pyrrolo[1,2-b]pyridazin-4-yl)-3-cyclopropyl-4-methyl-2-oxopyrrolidine-3-carbonitrile trifluoroacetate]
 |  |  |  | > 10 µM | > 100 nM | 5 to 10 µM | > 10000 nM | C[C@@H]1CN(c2ccnn3cc(-c4cnn(C)c4)cc23)C(=O)[C@]1(C#N)C1COC1 [Example 20, (3S,4S)-4-methyl-1-(6-(1-methyl-1H-pyrazol-4-yl)pyrrolo[1,2-b]pyridazin-4-yl)-3-(oxetan-3-yl)-2-oxopyrrolidine-3-carbonitrile]
 |  |  |  | 1 to 5 µM | > 100 nM | 1 to 5 µM | > 10000 nM | Cn1cc(-c2cc3c(N4CC[C@@H](C5CC5)C4=O)ccnn3c2)cn1 (single isomer, unassigned) [Example 37]
 |  |  |  | 1 to 5 µM | 50 to 100 nM | 1 to 5 µM | 1000 to 5000 nM | C[C@@H]1CN(c2ccnn3cc(-c4cccnc4OC(F)F)cc23)C(=O)[C@]1(C#N)C1CC1 [Example 50, (3R,4S)-3-cyclopropyl-1-(6-(2-(difluoromethoxy)pyridin-3-y1)pyrrolo[1,2-b]pyridazin-4-yl)-4-methyl-2-oxopyrrolidine-3-carbonitrile]
 |  |  |  | 1 to 5 µM | 50 to 100 nM | 5 to 10 µM | 1000 to 5000 nM | COc1cnc(-c2cc3c(N4C[C@@H](C)[C@@](C#N)(C5CC5)C4=O)ccnn3c2)nc1 [Example 136, (3R,4S)-3-cyclopropyl-1-(6-(5-methoxypyrimidin-2-yl)pyrrolo[1,2-b]pyridazin-4-yl)-4-methyl-2-oxopyrrolidine-3-carbonitrile trifluoroacetate]
 |  |  |  | 0.1 to 1 µM | 20 to 50 nM | 1 to 5 µM | 100 to 1000 nM | C[C@@H]1CN(c2ccnn3cc(-c4cnn(C)n4)cc23)C(=O)[C@]1(C#N)C1CC1 [Example 99, (3R,4S)-3-cyclopropyl-4-methyl-1-(6-(2-methyl-2H-1,2,3-triazol-4-yl)pyrrolo[1,2-b]pyridazin-4-yl)-2-oxopyrrolidine-3-carbonitrile trifluoroacetate]
